Test results taken from US9834558B2, “Substituted bridged urea analogs as sirtuin modulators” (GLAXOSMITHKLINE LLC, priority 2013, dated 2017).

Molecular target: T1, SIRT1 (Homo sapiens, UniProt Q96EB6)
T1 sequence (Q96EB6 1-747): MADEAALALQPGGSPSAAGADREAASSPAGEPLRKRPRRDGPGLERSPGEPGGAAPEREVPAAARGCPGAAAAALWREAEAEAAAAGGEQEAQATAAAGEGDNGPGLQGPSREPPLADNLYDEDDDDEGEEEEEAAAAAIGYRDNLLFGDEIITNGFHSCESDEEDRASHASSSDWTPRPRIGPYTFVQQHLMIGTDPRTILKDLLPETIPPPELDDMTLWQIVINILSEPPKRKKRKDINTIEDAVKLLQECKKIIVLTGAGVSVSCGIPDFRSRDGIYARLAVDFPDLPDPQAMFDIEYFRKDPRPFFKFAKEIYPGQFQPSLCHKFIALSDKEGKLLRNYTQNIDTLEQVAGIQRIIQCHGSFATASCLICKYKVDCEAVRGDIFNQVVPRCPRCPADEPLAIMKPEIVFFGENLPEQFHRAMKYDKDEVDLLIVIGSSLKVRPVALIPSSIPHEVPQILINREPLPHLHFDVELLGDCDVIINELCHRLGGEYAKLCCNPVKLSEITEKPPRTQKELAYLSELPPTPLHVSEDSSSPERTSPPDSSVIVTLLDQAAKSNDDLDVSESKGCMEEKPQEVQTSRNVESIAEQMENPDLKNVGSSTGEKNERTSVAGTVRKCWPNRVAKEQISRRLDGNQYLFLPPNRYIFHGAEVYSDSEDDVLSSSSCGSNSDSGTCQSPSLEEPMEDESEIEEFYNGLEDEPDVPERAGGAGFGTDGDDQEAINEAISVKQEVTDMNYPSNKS
Test: Trp mass spectrometry assay of SIRT1 activation
Format: biochemical
Conditions: Trp mass spectrometry assay; concentration of test compound giving 150% activation of SIRT1
Summary of the method: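 N-terminal His-tagged human SIRT1 (10 nM, E. coli BL21(DE3)) with 0.5 μM Ac-RHKK(Ac)W-NH2 peptide and 120 μM βNAD+, 25 min at 25 °C in HEPES pH 7.5, formic acid stop. OAADPR or deacetylated peptide quantified by mass spectrometry; EC1.5 (50% activity increase over control) and Percent Maximum Activation reported.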

SMILES	Tryp AVG EC1.5 (μM)
O=C(Nc1ccccn1)N1c2nc(-c3ccc(Cl)c(Cl)c3)ccc2N2CC[C@H]1C2 [Example 332]	A (A (EC1.5<1 μM))
O=C(Nc1ccccn1)N1c2nc(-c3cc(F)cc(C(F)(F)F)c3)ccc2N2CC[C@H]1C2 [Example 333]	A (A (EC1.5<1 μM))
O=C(Nc1ccccn1)N1c2nc(-c3cccc(C(F)(F)F)c3F)ccc2N2CC[C@H]1C2 [Example 334]	B (B (EC1.5 1-25 μM))
O=C(Nc1cccc(C2(C(F)(F)F)N=N2)c1)N1c2nc(-c3cccc(C(F)(F)F)c3)ccc2N2CCC[C@H]1C2 [Example 335]	A (A (EC1.5<1 μM))
O=C(Nc1ccccn1)N1c2nc(-c3cccc(C(F)(F)F)n3)ccc2N2CC[C@H]1C2 [Example 336]	B (B (EC1.5 1-25 μM))
O=C(Nc1ccncn1)N1c2nc(-c3cccc(C(F)(F)F)n3)ccc2N2CC[C@H]1C2 [Example 337]	B (B (EC1.5 1-25 μM))
O=C(Nc1cnccn1)N1c2nc(-c3cccc(C(F)(F)F)n3)ccc2N2CC[C@H]1C2 [Example 338]	B (B (EC1.5 1-25 μM))
COc1cc(NC(=O)N2c3nc(-c4cccc(C(F)(F)F)n4)ccc3N3CC[C@H]2C3)ncn1 [Example 339]	B (B (EC1.5 1-25 μM))
O=C(Nc1ccc(F)cn1)N1c2nc(-c3cccc(C(F)(F)F)n3)ccc2N2CC[C@H]1C2 [Example 340]	B (B (EC1.5 1-25 μM))
N#Cc1cc(-c2ccc3c(n2)N(C(=O)Nc2ccccn2)[C@H]2CCN3C2)ccc1F [Example 341]	A (A (EC1.5<1 μM))
COc1ccc(-c2ccc3c(n2)N(C(=O)Nc2ccccn2)[C@H]2CCN3C2)cn1 [Example 342]	B (B (EC1.5 1-25 μM))
CN(C)Cc1cccc(-c2ccc3c(n2)N(C(=O)Nc2ccccn2)[C@H]2CCN3C2)c1 [Example 343]	B (B (EC1.5 1-25 μM))
O=C(Nc1ccccn1)N1c2nc(-c3cc(F)cc(F)c3)ccc2N2CC[C@H]1C2 [Example 344]	A (A (EC1.5<1 μM))
CN(C)c1ccc(-c2ccc3c(n2)N(C(=O)Nc2ccccn2)[C@H]2CCN3C2)cn1 [Example 345]	B (B (EC1.5 1-25 μM))
COc1cncc(-c2ccc3c(n2)N(C(=O)Nc2ccccn2)[C@H]2CCN3C2)c1 [Example 346]	B (B (EC1.5 1-25 μM))
O=C(Nc1ccccn1)N1c2nc(-c3ccc(-c4nnn[nH]4)cc3)ccc2N2CC[C@H]1C2 [Example 347]	A (A (EC1.5<1 μM))
N#Cc1cccc(-c2ccc3c(n2)N(C(=O)Nc2ccccn2)[C@H]2CCCN3C2)c1 [Example 348]	A (A (EC1.5<1 μM))
Cn1cc(-c2ccc3c(n2)N(C(=O)Nc2ccccn2)[C@H]2CCN3C2)cn1 [Example 349]	B (B (EC1.5 1-25 μM))
N#Cc1cccc(-c2ccc3c(n2)N(C(=O)Nc2cccnc2)[C@H]2CCCN3C2)c1 [Example 350]	A (A (EC1.5<1 μM))
N#Cc1cccc(-c2ccc3c(n2)N(C(=O)Nc2cnccn2)[C@H]2CCCN3C2)c1 [Example 351]	A (A (EC1.5<1 μM))
N#Cc1cccc(-c2ccc3c(n2)N(C(=O)Nc2ccncn2)[C@H]2CCCN3C2)c1 [Example 352]	A (A (EC1.5<1 μM))
N#Cc1cccc(-c2ccc3c(n2)N(C(=O)Nc2cncc(F)c2)[C@H]2CCCN3C2)c1 [Example 353]	A (A (EC1.5<1 μM))
O=C(Nc1ccccn1)N1c2nc(-c3cccc(CC(O)CO)c3)ccc2N2CC[C@H]1C2 (some centres unmarked) [Example 354]	A (A (EC1.5<1 μM))
COc1cc(NC(=O)N2c3nc(-c4cccc(CC(O)CO)c4)ccc3N3CC[C@H]2C3)ncn1 (some centres unmarked) [Example 355]	B (B (EC1.5 1-25 μM))

Same assay, conditions: Trp peptide assay; EC1.5 = concentration that results in 150% activation of SIRT1

SMILES	TRP Activity (EC1.5)
O=C(Nc1cncc(OC[C@@H](O)CO)n1)N1c2nc(-c3cccc(C(F)(F)F)c3)ccc2N2CC[C@H]1C2 [(9S)-N-{6-[(2S)-2,3-dihydroxypropoxy]pyrazin-2-yl}-5-[3-(trifluoromethyl)phenyl]-1,6,8-triazatricyclo[7.2.1.0 {2,7}]dodeca-2(7),3,5-triene-8-carboxamide]	A (A (EC1.5<1 μM))

Same assay, conditions: Trp peptide assay; maximum activity relative to control (100%); read-out: TRP MAX RESP (percent maximum fold activation)

SMILES	Emax [%]
O=C(Nc1cncc(OC[C@@H](O)CO)n1)N1c2nc(-c3cccc(C(F)(F)F)c3)ccc2N2CC[C@H]1C2 [(9S)-N-{6-[(2S)-2,3-dihydroxypropoxy]pyrazin-2-yl}-5-[3-(trifluoromethyl)phenyl]-1,6,8-triazatricyclo[7.2.1.0 {2,7}]dodeca-2(7),3,5-triene-8-carboxamide]	> 150

Same assay, conditions: Trp peptide substrate; concentration giving 150% activation of SIRT1

SMILES	Tryp AVG EC1.5 (μM)
Cc1cc(OCC(O)CO)nc(NC(=O)N2c3nc(-c4cccc(C(F)(F)F)c4)ccc3N3CC[C@H]2C3)n1 (some centres unmarked) [Example 26]	B (B (EC1.5 1-25 μM))
CCN(CC)C(=O)N1c2nc(-c3cccc(C(F)(F)F)c3)ccc2N2CC[C@H]1C2 [Example 52]	C (C (EC1.5>25 μM))
CC(=O)c1sc(NC(=O)N2c3nc(-c4cccc(C(F)(F)F)c4)ccc3N3CC[C@H]2C3)nc1C [Example 75]	A (A (EC1.5<1 μM))
COc1ccc(C)nc1NC(=O)N1c2nc(-c3cccc(C(F)(F)F)c3)ccc2N2CC[C@H]1C2 [Example 77]	B (B (EC1.5 1-25 μM))
O=C(Nc1cccc2nccnc12)N1c2nc(-c3cccc(C(F)(F)F)c3)ccc2N2CC[C@H]1C2 [Example 83]	A (A (EC1.5<1 μM))
Cn1ncc2cc(NC(=O)N3c4nc(-c5cccc(C(F)(F)F)c5)ccc4N4CC[C@H]3C4)ccc21 [Example 87]	A (A (EC1.5<1 μM))
O=C(Nc1nc2ccccc2s1)N1c2nc(-c3cccc(C(F)(F)F)c3)ccc2N2CC[C@H]1C2 [Example 90]	A (A (EC1.5<1 μM))
Cc1nc(NC(=O)N2c3nc(-c4cccc(C(F)(F)F)c4)ccc3N3CC[C@H]2C3)nc2c1CCC2 [Example 91]	B (B (EC1.5 1-25 μM))
Cc1nn(C)cc1NC(=O)N1c2nc(-c3cccc(C(F)(F)F)c3)ccc2N2CC[C@H]1C2 [Example 92]	B (B (EC1.5 1-25 μM))
O=C1OCc2ccc(NC(=O)N3c4nc(-c5cccc(C(F)(F)F)c5)ccc4N4CC[C@H]3C4)cc21 [Example 93]	A (A (EC1.5<1 μM))
Cc1cc(C(F)(F)F)nc(NC(=O)N2c3nc(-c4cccc(C(F)(F)F)c4)ccc3N3CC[C@H]2C3)n1 [Example 94]	B (B (EC1.5 1-25 μM))
O=C(Nc1ccc2c(c1)OCCCO2)N1c2nc(-c3cccc(C(F)(F)F)c3)ccc2N2CC[C@H]1C2 [Example 95]	A (A (EC1.5<1 μM))
O=C(Nc1ccncc1Cl)N1c2nc(-c3cccc(C(F)(F)F)c3)ccc2N2CC[C@H]1C2 [Example 96]	B (B (EC1.5 1-25 μM))
O=C(Nc1ccncn1)N1c2nc(C3CCCC(C(F)(F)F)C3)ccc2N2CC[C@H]1C2 (some centres unmarked) [Example 98]	B (B (EC1.5 1-25 μM))
O=C(Nc1cccnc1)N1c2nc(C3CCCC(C(F)(F)F)C3)ccc2N2CC[C@H]1C2 (some centres unmarked) [Example 99]	A (A (EC1.5<1 μM))
Cc1cnccc1NC(=O)N1c2nc(C3CCCC(C(F)(F)F)C3)ccc2N2CC[C@H]1C2 (some centres unmarked) [Example 100]	B (B (EC1.5 1-25 μM))
O=C(Nc1cnccn1)N1c2nc(-c3cccc(Cl)c3)ccc2N2CC[C@H]1C2 [Example 101]	A (A (EC1.5<1 μM))
Cc1nc(NC(=O)N2c3nc(-c4cccc(Cl)c4)ccc3N3CC[C@H]2C3)sc1C [Example 102]	A (A (EC1.5<1 μM))
COc1cc(NC(=O)N2c3nc(-c4cccc(Cl)c4)ccc3N3CC[C@H]2C3)nc(OC)n1 [Example 103]	B (B (EC1.5 1-25 μM))
COc1cc(NC(=O)N2c3nc(-c4cccc(Cl)c4)ccc3N3CC[C@H]2C3)ncn1 [Example 104]	B (B (EC1.5 1-25 μM))
Cc1cc(C)nc(NC(=O)N2c3nc(-c4cccc(Cl)c4)ccc3N3CC[C@H]2C3)c1 [Example 105]	B (B (EC1.5 1-25 μM))
Cc1cccnc1NC(=O)N1c2nc(-c3cccc(Cl)c3)ccc2N2CC[C@H]1C2 [Example 106]	C (C (EC1.5>25 μM))

Same assay, conditions: Trp peptide substrate; percent maximum fold activation of SIRT1; read-out: Tryp % Fold Act

SMILES	Emax [%]
O=C(Nc1ccncc1)N1c2nc(-c3cccc(C(F)(F)F)c3)ccc2N2CC(O)C1C2 (centres unmarked) [Compound 114]	> 150
O=C(Nc1cc(F)ccn1)N1c2nc(-c3cccc(OC(F)(F)F)c3)ccc2N2CC[C@H]1C2 [Compound 174]	> 150
